The target of data set [1] is T1, Nitric oxide synthase, inducible (Mus musculus, UniProt P29477).
T1 sequence (P29477 whole entry): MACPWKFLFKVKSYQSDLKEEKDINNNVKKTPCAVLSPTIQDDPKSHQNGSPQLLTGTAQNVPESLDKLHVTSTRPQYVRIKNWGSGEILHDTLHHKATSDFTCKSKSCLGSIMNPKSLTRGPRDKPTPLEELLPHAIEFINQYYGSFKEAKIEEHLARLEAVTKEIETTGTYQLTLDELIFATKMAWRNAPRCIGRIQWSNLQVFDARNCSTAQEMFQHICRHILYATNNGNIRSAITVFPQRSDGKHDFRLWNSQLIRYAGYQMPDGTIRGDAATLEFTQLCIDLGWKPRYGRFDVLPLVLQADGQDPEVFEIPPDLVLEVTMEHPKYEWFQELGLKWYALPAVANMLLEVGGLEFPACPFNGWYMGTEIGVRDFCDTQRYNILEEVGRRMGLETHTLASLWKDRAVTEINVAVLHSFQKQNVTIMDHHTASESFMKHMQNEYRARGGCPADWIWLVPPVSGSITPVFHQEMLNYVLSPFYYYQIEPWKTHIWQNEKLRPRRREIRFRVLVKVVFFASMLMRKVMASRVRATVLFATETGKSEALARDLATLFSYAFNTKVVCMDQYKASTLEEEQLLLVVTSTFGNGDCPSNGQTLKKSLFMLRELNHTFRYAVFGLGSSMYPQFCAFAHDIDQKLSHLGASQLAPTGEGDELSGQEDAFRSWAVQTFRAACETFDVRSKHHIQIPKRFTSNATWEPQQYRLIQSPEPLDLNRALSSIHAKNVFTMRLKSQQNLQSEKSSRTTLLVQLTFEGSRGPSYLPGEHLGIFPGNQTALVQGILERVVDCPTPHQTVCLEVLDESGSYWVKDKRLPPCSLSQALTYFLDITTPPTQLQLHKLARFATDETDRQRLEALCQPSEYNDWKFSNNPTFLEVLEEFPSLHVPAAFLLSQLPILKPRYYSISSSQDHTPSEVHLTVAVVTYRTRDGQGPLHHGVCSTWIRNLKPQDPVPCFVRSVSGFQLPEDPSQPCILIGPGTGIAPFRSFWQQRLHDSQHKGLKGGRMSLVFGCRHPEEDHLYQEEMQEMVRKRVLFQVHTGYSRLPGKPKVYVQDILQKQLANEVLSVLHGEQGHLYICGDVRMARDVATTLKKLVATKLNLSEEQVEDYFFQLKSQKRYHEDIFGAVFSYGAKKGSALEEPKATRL
Put plainly: Inhibition of iNOS in mouse BV2 cells assessed as inhibition of LPS-induced NO production after 20 hrs by Griess reaction. It counts as cell-based, BV-2.

A further data set is filed under the species Mus musculus. Put plainly: Cytotoxicity against mouse BV2 cells at IC50 by MTT assay. Format: toxicity, cell-based. The settings on record: bv-2.

Molecules are shown by their SMILES. Bounds are passed on as bounds.

As usually defined, the IC50 is the concentration that gives 50% inhibition. As for `C=C(C)[C@@]1(OC(C)=O)[C@H](OC(C)=O)[C@@H]2[C@H](OC(C)=O)[C@@]3(C)O[C@@]4([C@@H]3OC(=O)c3ccccc3)[C@@H](OC(C)=O)[C@@H](C)C[C@H]4[C@@]2(O)[C@H](C)[C@@H]1OC(=O)c1ccccc1`, the concentration for half-maximal inhibition (IC50) in data set [1] turned out to be 7.5 µM. For the same molecule, the Activity result in the data set filed under Mus musculus is “Non-Toxic”.

For the molecule `C=C(C)[C@@]1(OC(=O)c2ccccc2)[C@H](OC(C)=O)[C@@H]2[C@H](OC(C)=O)[C@@]3(C)O[C@@]4([C@@H]3OC(=O)c3ccccc3)[C@@H](OC(C)=O)[C@@H](C)C[C@H]4[C@@]2(O)[C@H](C)[C@@H]1OC(C)=O`, the 50% inhibitory concentration (IC50) in data set [1] stood at 13.4 µM. The Activity entry in the data set listed under Mus musculus is given as “Non-Toxic”.

Regarding `Cc1cc2c(cc1O)C=C1CC[C@H](O)C(C)(C)[C@@H]1CC2`, the IC50 in data set [1] was 3.8 µM. In addition, the Activity result in the data set listed under Mus musculus is listed as “Non-Toxic”.

Consider `CSC(=N)N.O=S(=O)(O)O`, for which the half-inhibitory concentration (IC50) in data set [1] was 1.8 µM. For the same molecule, the Activity result in the data set filed under Mus musculus is recorded as “Non-Toxic”.

For the molecule `Cc1cc2c(cc1O)[C@@]1(C)CC[C@H](O)C(C)(C)[C@@H]1CC2`, in data set [1], the IC50 came to 5.9 µM. Moreover, the Activity result in the data set filed under Mus musculus is recorded as “Non-Toxic”.

With `C=C(C)[C@@]1(O)[C@@H]2OC3(c4ccccc4)O[C@H]1[C@@H](C)[C@@]1(O3)[C@H]2[C@H](O)[C@@](C)(OC(=O)c2ccccc2)[C@@H](OC(C)=O)[C@@]2(O)[C@H]1C[C@H](C)[C@@H]2O`, in data set [1], the IC50 is more than 30 µM. Further, the Activity entry in the data set listed under Mus musculus is listed as “Non-Toxic”.

Consider `C=C(C)[C@@]1(O)[C@@H]2OC3(c4ccccc4)O[C@H]1[C@@H](C)[C@@]1(O3)[C@H]2[C@H](OC(C)=O)[C@@](C)(OC(=O)c2ccccc2)[C@@H](OC(C)=O)[C@@]2(O)[C@H]1C[C@H](C)[C@@H]2O`, for which the IC50 in data set [1] turned out to be 10.2 µM. Moreover, the Activity entry in the data set filed under Mus musculus was “Non-Toxic”.

For the origin of these results see ChEMBL document CHEMBL3856242, “Bioactive diterpenoids from Trigonostemon chinensis: Structures, NO inhibitory activities, and interactions with iNOS” (Bioorg Med Chem Lett, 2016).
